The text below walks through data of PMC6844273, “Platinum(IV) dihydroxido diazido N-(heterocyclic)imine complexes are potently photocytotoxic when irradiated with visible light” (Chemical Science, 2019).

Entries after “also recorded” stand apart in the source; their conditions may differ. Like-named read-outs stand apart in the source and are kept apart here. Marks after values point to notes of the source that are not given here.

Data set [1] relates to A2780, A2780cis and OE19 cancer cell lines. Conditions: for Dark toxicity: absence of irradiation, cell lines investigated; for IC50: read-out: IC50 in the absence of irradiation, dark, non-toxic defined as IC50 > 200 μM. How it is done:
(§1) The novel trans-di-(N-heterocyclic)imine dihydroxido diazido Pt^IV complexes Pt^IV complexes were evaluated against human ovarian (A2780), cisplatin-resistant ovarian (A2780cis) and oesophageal (OE19) cancer cell lines, and the previously reported compounds (FM165 and 3) were also evaluated for comparison. […]
(§2) Maintenance. Human ovarian carcinoma (A2780), cisplatin-resistant ovarian carcinoma (A2780CIS) and oesophageal adenocarcinoma (OE19) cells were maintained in RPMI medium containing 10% Foetal Calf Serum (FCS). Cell lines were obtained from the European Collection of Animal Cell Cultures (ECACC). Cells were maintained in antibiotic-free medium in a humidified atmosphere of 95% air: 5% CO2 and subcultured every 7-10 days. Mycoplasma checks were done using the Hoechst staining method. Cells were seeded into dishes the night before experiments at a density of 6 - 7×10^4 cells.cm-2.
(§3) Experiments were carried out in an adapted laboratory with ambient light levels kept below 1 lux […]
(§4) Irradiation. Cells were irradiated by a bank of TL03 light sources (λmax 420 nm), filtered to attenuate wavelengths below 400 nm. Irradiances, dosimetry and calibrations were traceable to the National […]
(§5) Cells were irradiated in stirred suspension. Sham irradiated cells were treated identically to the test cells but were covered during irradiation.
(§6) Treatment. Test compounds were prepared in Earle’s Balanced Salt Solution (EBSS) and filtered immediately before use. Photofrin was used as the positive control for visible light irradiation. The positive and negative controls were included on each plate in parallel with the complexes. Cell viability […]
(§7) Cells were treated for 1 h at 37 °C/5% CO2 with EBSS containing the test compound, and then irradiated with 5 J.cm-2 visible radiation.
(§8) Phototoxic Index and Wavelength-Dependence. The phototoxic Index (PI) was determined 24 h after irradiation using the neutral red uptake assay;14 following cell uptake the neutral red dye accumulates in lysosomes, the low pH in the lysosomal matrix of live cells causes the dye to becomes charged, allowing it to be retained in this organelle.15 The dye was then extracted from the cells upon solubilisation and quantified. Protocol: a stock solution of neutral red was prepared in water (4 mg. mL-1) and diluted 80-fold in the cell culture medium (RPMI). Prior to addition to the cells, the solution was heated to 37 °C and filtered (no. 1 Whatman paper). The growth medium was removed from the cells, the neutral red dye (100 μL) was added and the cells are incubated for 3 hours in the dark. Upon removal of the dye, the cells were rinsed with PBS (100 μL) and then the plates were shaken for 15 min with […] for solubilisation. The dye concentration was quantified by measuring the absorbance at […]. An IC50 value was determined and is defined as the concentration required to inhibit dye uptake by 50%. This was done using non-linear regression (Graphpad Prism). Goodness of fit was determined from the R2 values of the curves and 95% confidence intervals. All cell experiments were performed in triplicate and repeated independently a minimum of two times.

For data set [2], the system named is human ovarian (A2780) cancer cell line. Description: Phototoxicity / dark cytotoxicity, neutral red uptake assay, A2780. To be noted: for PI (phototoxic index): ratio of cytotoxicity following irradiation (420 nm) vs. in the dark. How it is done: as §1
(§9) controller and 3 UVA lamps (Hitachi, λmax = 361 nm) or 6 Luzchem LZC-420 lamps (λmax = 420 nm) with no other sources of light filtration, or LED light sources (BASETech model no. SP-GU10 230V~50 Hz […]
as §2, §3
(§10) Irradiation. Cells were irradiated by a bank of TL03 light sources (λmax 420 nm), filtered to attenuate wavelengths below 400 nm. Irradiances, dosimetry and calibrations were traceable to the National Physical Laboratory.12 Monochromatic light irradiation of the sample was performed using equipment consisting of a 1600W xenon arc light source and a grating monochromator. The apparatus was set to irradiate monochromatic light at 365, 400, 430, 500 and 530 nm. Filters were used to eliminate second order diffraction of shorter wavelengths from the specified longer wavelength monochromatic light.13 Cells were irradiated in stirred suspension. Sham irradiated cells were treated identically to the test cells but were covered during irradiation.
as §6, §7, §8

Data set [3] relates to cisplatin-resistant ovarian (A2780cis) cancer cell line. Briefly: Phototoxicity / dark cytotoxicity, neutral red uptake assay, A2780cis. Conditions: for PI (phototoxic index): ratio of cytotoxicity following irradiation (420 nm) vs. in the dark; for IC50: read-out: IC50 (phototoxicity), blue light 420 nm, 5 J cm^–2, TL03, filtered <400 nm. How it is done: as §1, §2, §3, §4, §5, §6, §7, §8

Data set [4] is classed as physicochemical. To be noted: water, 20 °C.
Data set [5] can be described thus: Photodecomposition in H2O (loss of N3→Pt LMCT band) by UV-vis spectroscopy. It counts as physicochemical. Conditions: 60 μM in H2O, blue light 463 nm, 57 mW cm^–2, UV-vis. How it is done:
Solutions of the Pt^IV diazido complexes (60 μM, H2O) were irradiated with blue light (463 nm, 57 mW cm^–2). […] The data were fitted to y = y0 + Ae^Rox, with r^2 > 0.98 (Fig. 7).
Figure S2: Changes in UV-Vis spectra of the PtIV diazido complexes (60 μM in H2O) upon irradiation
Table S11. Decomposition half-lives of complexes (60 μM) when irradiated with blue (463 nm) light,
as measured by UV-Vis spectroscopy.
(1 picture or pasted object on this page, not shown here)

The test system of data set [6] is oesophageal (OE19) cancer cell line. Briefly: Phototoxicity / dark cytotoxicity, neutral red uptake assay, OE19. Conditions: for PI (phototoxic index) / IC50: OE19; for PI (phototoxic index): ratio of cytotoxicity following irradiation (420 nm) vs. in the dark; for IC50: read-out: IC50 (phototoxicity), blue light 420 nm, 5 J cm^–2, TL03, filtered <400 nm. On the procedure: as §1, §9, §2, §3, §10, §6, §7, §8

The subject of data set [7] is human ovarian (A2780) cancer cell line. Conditions: cited from earlier work; for IC50: read-out: IC50 (phototoxicity); for Dark toxicity: A2780, absence of irradiation.
Data set [8] has as its system A2780, A2780cis and OE19 cancer cell lines. More on the design: method as in PMID 23733242. To be noted: dark; read-out: IC50 in the absence of irradiation; cited from earlier work.
Data set [9] relates to cisplatin-resistant ovarian (A2780cis) cancer cell line. Conditions: read-out: IC50 (phototoxicity), cited from earlier work.
Data set [10] has as its system oesophageal (OE19) cancer cell line. More on the design: method as in PMID 23733242. Conditions: OE19, 420 nm irradiation; read-out: IC50 (phototoxicity); cited from earlier work.
Setting [11] is: read-out: IC50 (phototoxicity), A2780, blue light 420 nm, 5 J cm^–2, TL03, filtered <400 nm, 1 h treatment, read 24 h after irradiation.

For the substance “trans,trans,trans-[Pt(N3)2(OH)2(1-methylimidazole)2] [Complex 32]”, the “Dark toxicity” value in [1] is reported as “non-toxic in the absence of irradiation”. The IC50 in [1] is above 200 µM; in data set [2] (setting [11]), 56.3 µM; in [3], 164 µM. In addition, the “PI (phototoxic index)” value is above 3.7 in data set [2] (A2780) and above 1.3 in [3]. Besides, the Maximum aqueous solubility in data set [4] is 82 mM.
As to “trans,trans,trans-[Pt(N3)2(OH)2(2-picoline)(pyridine)] [Complex 18]”, the “Phototoxicity, fold less phototoxic than 26” value in [2] (A2780, 420 nm) was around 7 fold. Besides, the “PI (phototoxic index)” value in data set [2] (A2780) is 7.3 ^d; in [3], 5.3 ^d. For the same substance, the results for the IC50 in data set [2] (setting [11]) and in [3] were 14.5 µM and 15.5 µM, respectively.
Take “trans,trans,trans-[Pt(N3)2(OH)2(3-picoline)2] [Complex 23]”: the results for the IC50 in [1], in data set [2] (setting [11]) and in data set [3] were above 200 µM, 7.2 µM and 10.4 µM, respectively. The “PI (phototoxic index)” value is above 27.8 in data set [2] (A2780) and above 19.3 in data set [3]. This substance registered a Maximum aqueous solubility in data set [4] of 3 mM. The “Decomposition half-life t1/2” value in data set [5] came out at 26 min.
Consider “trans,trans,trans-[Pt(N3)2(OH)2(3-picoline)(pyridine)] [Complex 19]”, for which the IC50 is above 200 µM in data set [1], 4 µM in [2] (setting [11]), 5.5 µM in [6] and 3.3 µM in [3]. In addition, the “PI (phototoxic index)” value is given as above 51.5 in [2] (A2780), above 38 in data set [6] and above 71.0 in data set [3].
With “trans,trans,trans-[Pt(N3)2(OH)2(4-picoline)2] [Complex 26]”, the IC50 was above 200 µM in data set [1], 2.1 µM in data set [2] (setting [11]), 8.2 µM in data set [6] and 4.1 µM in data set [3]. Moreover, the “Decomposition half-life t1/2” value in data set [5] is given as 25 min.
Take “trans,trans,trans-[Pt(N3)2(OH)2(4-picoline)(pyridine)] [Complex 20]”: the IC50 in [1] was above 200 µM; in data set [2] (setting [11]) it was 5.4 µM; in data set [6] it was 12.3 µM; in [3], 4.6 µM. In addition, the “Phototoxicity with green light” value in data set [2] (A2780, green light 515 nm) is “no phototoxicity”; in [6] (OE19, green light 515 nm) it was “no phototoxicity”. Also, the “PI (phototoxic index)” value is listed as above 38 in data set [2] (A2780), above 17 in data set [6] and above 45 in [3].
With “trans,trans,trans-[Pt(N3)2(OH)2(NH2CH3)(thiazole)]”, the IC50 in data set [7] (A2780, 420 nm irradiation) is 28.2 µM; in data set [8], above 233 µM; in data set [9] (420 nm irradiation), 6.4 µM; in data set [10], 19.3 µM.
Regarding “trans,trans,trans-[Pt(N3)2(OH)2(NH3)(py)] [FM165, reference compound]”, the “PI (phototoxic index)” value in data set [2] (A2780) is given as above 9.6. For the same substance, the IC50 in data set [2] (setting [11]) was 25.4 µM; in data set [7] (A2780, visible light 420 nm), 25.4 µM. Besides, the “Dark toxicity” value in data set [7] is “non-toxic in the absence of irradiation”.
As for “trans,trans,trans-[Pt(N3)2(OH)2(thiazole)2] [Complex 29]”, the “Dark toxicity” value in data set [1] is “toxic towards cells in the absence of irradiation”; in [2] (A2780, absence of irradiation), “some dark toxicity”; in data set [6] (OE19, absence of irradiation) it was “no toxicity; also recorded: without any dark toxicity”; in data set [3] (absence of irradiation) it was “no toxicity; also recorded: without any dark toxicity”. Also, the “Phototoxicity, fold greater than thiazole complex (tz, methylamine)” value in data set [1] (all three cell lines, 420 nm) is given as “at least 2 fold”. Also, the IC50 in data set [2] (setting [11]) is 2.4 µM; in [2] (read-out: IC50 in the absence of irradiation, A2780, dark) it was 115 µM; in data set [6], 7.6 µM; in data set [3], 2.9 µM. The “PI (phototoxic index)” value in data set [6] was above 27; in data set [3] it was above 71.0. Also, the Maximum aqueous solubility in data set [4] is 1 mM. Further, the “Decomposition half-life t1/2” value in data set [5] is reported as 17 min.
Take “trans,trans,trans-[Pt(OH)2(N3)2(py)2] [Complex 3, reference compound]”: the “PI (phototoxic index)” value in data set [2] (A2780) and in [6] was above 45 throughout. For the same substance, the IC50 in data set [2] (setting [11]) is 6.7 µM; in data set [6], 8.4 µM; in [7] (A2780, UVA irradiation) it was 1.4 µM; in data set [7] (A2780, visible light 420 nm), 6.7 µM; in [9] (UVA irradiation), 14.5 µM. In data set [4], this substance displayed a Maximum aqueous solubility of 34 mM. The “Dark toxicity” value in [7] is recorded as “non-toxic in the absence of irradiation”. Also, the “Decomposition half-life t1/2” value in [5] amounted to 22 min.
